Data from patent publication US20110306664A1, “MEDICAL DIETARY COMPOSITION FOR TREATING NEURODEGENERATIVE DISEASES” (SOFEDUS S.R.L., priority 2008, published 2011).
Read-outs that look alike come from different tables or passages of the source.

Tests used:
[1] = animal models, incorporated in the brain (Fa 2005); cited from earlier work
[2] = CSF fatty acid analysis (passage of the blood-brain barrier); format: in vivo, human; conditions: humans, given as LO+CLA
Description: At baseline and during the 3rd visit, aliquots of cerebrospinal fluid (CSF) were collected by lumbar puncture in all patients. Blood and CSF samples were centrifuged and stored at −80° C., until analyses.
The CSF samples were analysed for fatty acid composition, in order to verify whether CLA and erucic acid are able to pass, and to what extent, the blood-brain barrier.
Total lipids were extracted from plasma or CSF using chloroform/methanol 2:1 (v/v) (Folch J, Lees M, Sloane-Stanley GH. A simple method for the isolation and purification of total lipid from animal tissues. J. Biol. Chem. 1957; 226: 497-509). Separation of phospholipids from total lipids was performed as previously reported (Banni S, Carta G, Angioni E, Murru E, Scanu P, Melis MP, et al. Distribution of conjugated linoleic acid and metabolites in different lipid fractions in the rat liver. J Lipid Res 2001; 42: 1056-1061.). […]
Since saturated fatty acids are transparent to UV, they were measured, after methylation, by means of a gas chromatograph (Agilent, Model 6890, Palo Alto, Calif.) equipped with split ratio of 20:1 injection port, a flame ionization detector (FID), an autosampler (Agilent, Model 7673), a 100 m HP-88 fused capillary column (Agilent), and an Agilent ChemStation software system. […]

[3] = rat brain (Golovko and Murphy 2006); cited from earlier work
[4] = in the long run (Kramer et al.); cited from earlier work

Compound: conjugated linoleic acid [CLA]
- passage through the blood-brain barrier [1]: capable of passing through the blood-brain barrier
- passage of CLA through the blood-brain barrier [2]: prompt entry of CLA through the blood-brain barrier in humans

Compound: CCCCCCCC/C=C\CCCCCCCCCCCC(=O)O [erucic acid]
- passage through the blood-brain barrier [3]: hardly passes through the blood-brain barrier
- myocardial lipidosis [4]: cause in the long run myocardial lipidosis
